Results on two compounds are retold here after patent publication US20250283110A1, “METHODS AND COMPOSITIONS FOR TRANSDUCTION OF NK CELLS” (ST. JUDE CHILDREN'S RESEARCH HOSPITAL, INC., priority 2021, published 2025).

Assay [1] deals with NK cells. Put plainly: cells. The assay is classed as cell-based. The settings on record: Homo sapiens, 72 h; N=3; read-out: EC50 of YFP expression in NK cells.
Assay [2] has as its system NK cells. Put plainly: NK cell immunophenotyping by flow cytometry with and without inhibitor. The settings on record: 2 μM for 24 hours, then 48 hours fresh media; N=3; paired two-tailed t-test treated vs untreated. The assay is classed as cell-based, Human. The protocol: FIGS. 4A-4B show representative data relating to NK cell phenotype with and without treatment with a representative disclosed compound, MRT67307. Briefly, NK cells were treated with and without 2μMMRT67307 for 24 hours. Media was removed and replaced with fresh complete media and cells incubated for another 48 hours. Cells were immunophenotyped via flow cytometry. NK cells were identified as efluor455UV negative, CD3 negative, and CD56 positive.
250,000 NK cells were collected and washed twice in DPBS. Surface HER2-CAR detection was determined via immunolabeling with anti-F (ab′) 2-AF647 (109-606-006, Jackson Labs, Bar Harbor, ME, USA; 1:100), CD19-CAR was detected with PE conjugated recombinant human CD19 protein (3309HP, Creative Biomart, Shirley, NY, USA; 1:100), or YFP were utilized for detection on a BD FACS Lyric machine and analyzed with FlowJo v10 (BD). Immunophenotyping was performed on a BD Symphony flow cytometer. Antibodies used are delineated in below in Table 1.

The subject of the next assay is TBK1/IKKε. The settings on record: Ref. 20; cited from earlier work.

Structures are written as SMILES. “Also recorded” adds a separate entry of the source.

Regarding `O=C(NCCCNc1nc(Nc2cccc(NC(=O)N3CCCC3)c2)ncc1I)c1cccs1` [BX-795], the EC50 in the assay on NK cells [1] came to 5 µM.
Regarding `O=C(NCCCNc1nc(Nc2cccc(CN3CCOCC3)c2)ncc1C1CC1)C1CCC1` [MRT67307, N-[3-[[5-cyclopropyl-2-[3-(morpholin-4-ylmethyl)anilino]pyrimidin-4-yl]amino]propyl]cyclobutanecarboxamide], the EC50 in the assay on NK cells [1] was found to be 1.1 µM. In the assay with NK cells [2], the “effect on NK cell phenotype” value is on record as “no effect; also recorded: No parameter was significantly different”. Further, the “specificity for TBK1/IKKε” value in the assay on TBK1/IKKε is given as “more specific for TBK1/IKKε than BX-795”.
